What was measured:
Settings in all cases: stereoisomer not certain
[1] = RP, Waters ACQUITY UPLC BEH Shield RP18, 100 × 2.1 mm, 1.7 µm, 30 °C, 0.6 mL/min, estimated dead time 0.37 min; A: water + 0.1% formic acid, pH 3; B: acetonitrile + 0.1% formic acid, pH 3; gradient (min/%B) 0/0 2/0 7/10 22/95 22.1/0 26/0
[2] = RP, Phenomenex Luna C18, 150 × 4.6 mm, 3 µm, 25 °C, 0.5 mL/min, estimated dead time 3.2 min; A: water + 0.1% formic acid, pH 3; B: acetonitrile + 0.1% formic acid, pH 3; gradient (min/%B) 0/0 30/30 35/40 50/80 52/80 60/0 65/0
[3] = RP, Waters Atlantis T3, 100 × 2.1 mm, 3 µm, 40 °C, 0.3 mL/min, estimated dead time 0.73 min; A: water + 0.1% trifluoroacetic acid, pH 2; B: acetonitrile + 0.1% trifluoroacetic acid, pH 2; gradient (min/%B) 0/10 1/10 6/40 7/50 8/50 14/70 16/80 20/10 25/10
[4] = RP, Merck LiChrospher RP-18, 250 × 4 mm, 5 µm, 35 °C, 0.3 mL/min, estimated dead time 6.7 min; A: water + 0.5% formic acid; B: acetonitrile + 0.5% formic acid; gradient (min/%B) 0/5 10/5 30/15 45/20 65/20 95/54 110/63 115/5 135/5
[5] = RP, Waters ACQUITY UPLC BEH Shield RP18, 150 × 2.1 mm, 1.7 µm, 40 °C, 0.4 mL/min, estimated dead time 0.83 min; A: water + 0.1% formic acid, pH 3; B: acetonitrile + 0.1% formic acid, pH 3; gradient (min/%B) 0/0 30/50 31/100 37/100 37.1/0
[6] = RP, Agilent InfinityLab Poroshell 120 EC-C18, 100 × 3 mm, 2.7 µm, 25 °C, 0.4 mL/min, estimated dead time 1.1 min; A: water + 0.1% formic acid, pH 3; B: acetonitrile + 0.1% formic acid, pH 3; gradient (min/%B) 0/5 10/25 20/40 24/90 25/90 26/5 30/5
[7] = RP, Agilent ZORBAX Eclipse XDB-C18, 100 × 2.1 mm, 1.8 µm, 50 °C, 0.4 mL/min, estimated dead time 0.55 min; A: water + 0.1% formic acid, pH 3; B: methanol + 0.1% formic acid, pH 3; gradient (min/%B) 0/2 10/100 14.5/100 14.51/2 16.5/2
[8] = RP, Phenomenex Synergi Hydro-RP, 150 × 2 mm, 4 µm, 30 °C, 0.5 mL/min, estimated dead time 0.6 min; A: water + 0.1% formic acid, pH 3; B: acetonitrile + 0.1% formic acid, pH 3; gradient (min/%B) 0/5 1/5 35/45 40/100 45/100
[9] = RP, 50 × 0.5 mm, 2.7 µm, 35 °C, 0.01 mL/min, estimated dead time 0.62 min; A: water + 0.1% formic acid, pH 3; B: acetonitrile + 0.1% formic acid, pH 3; gradient (min/%B) 0/5 12/95 14/95 16/5
[10] = RP, Waters ACQUITY UPLC HSS T3, 100 × 2.1 mm, 1.8 µm, 30 °C, 0.4 mL/min, estimated dead time 0.55 min; A: water + 0.1% formic acid, pH 3; B: acetonitrile + 0.1% formic acid, pH 3; gradient (min/%B) 0/0 2/0 15/100 22/100 22.1/0 26/0
[11] = RP, Phenomenex Luna Omega Polar C18, 100 × 2.1 mm, 1.6 µm, 40 °C, 0.5 mL/min, estimated dead time 0.44 min; A: water + 0.5% formic acid; B: acetonitrile + 0.5% formic acid; gradient (min/%B) 0/5 3/50 3.1/100 5/100 5.1/5 7/5
[12] = RP, Phenomenex Luna Omega Polar C18, 100 × 2.1 mm, 1.6 µm, 40 °C, 0.5 mL/min, estimated dead time 0.44 min; A: water + 0.1% formic acid + 10 mM ammonium formate; B: acetonitrile; gradient (min/%B) 0/5 8/20 10/100 12/100 12.1/5 14/5
[13] = Other, Phenomenex Kinetex PFP, 100 × 4.6 mm, 5 µm, 45 °C, 0.6 mL/min, estimated dead time 1.8 min; A: water + 0.1% trifluoroacetic acid, pH 2; B: methanol; gradient (min/%B) 0/40 20/72 21/40
[14] = RP, Phenomenex Kinetex EVO C18, 100 × 2.1 mm, 2.6 µm, 40 °C, 0.4 mL/min, estimated dead time 0.55 min; A: water + 0.2% formic acid; B: acetonitrile + 0.2% formic acid; gradient (min/%B) 0/5 0.5/5 7/95 8/95 8.5/5 12/5

SMILES: OCC1OC(Oc2cc3c(O)cc(O)cc3[o+]c2-c2ccc(O)c(O)c2)C(O)C(O)C1O (configuration not stated) [Cyanidin 3-O-glucoside]
- LC retention time [1]: 10.8 min
- LC retention time [2]: 9.83 min
- LC retention time [3]: 5.04 min
- LC retention time [4]: 49 min
- LC retention time [5]: 7.98 min
- LC retention time [6]: 5.65 min
- LC retention time [7]: 3.52 min
- LC retention time [8]: 9.85 min
- LC retention time [9]: 3.25 min
- LC retention time [10]: 7.85 min
- LC retention time [11]: 1.76 min

SMILES: OCCc1ccc(O)c(O)c1 [Hydroxytyrosol]
- LC retention time [2]: 8.55 min
- LC retention time [5]: 3.26 min
- LC retention time [6]: 3.8 min
- LC retention time [7]: 2.44 min
- LC retention time [9]: 1.67 min
- LC retention time [10]: 7.27 min
- LC retention time [12]: 2.05 min

SMILES: O=c1c(OC2OC(CO)C(O)C(O)C2O)c(-c2ccc(OS(=O)(=O)O)c(O)c2)oc2cc(O)cc(O)c12 (configuration not stated) [Isoquercitrin 4-O-sulfate]
- LC retention time [13]: 7.77 min

SMILES: O=c1cc(-c2ccc(O)c(OS(=O)(=O)O)c2)oc2cc(O)cc(O)c12 [Luteolin 3-sulfate]
- LC retention time [13]: 16.4 min

SMILES: O=c1cc(-c2ccc(OS(=O)(=O)O)c(O)c2)oc2cc(O)cc(O)c12 [Luteolin 4-sulfate]
- LC retention time [13]: 17.1 min

SMILES: O=c1cc(-c2ccc(OS(=O)(=O)O)c(O)c2)oc2cc(OS(=O)(=O)O)cc(O)c12 [Luteolin 7,4-disulfate]
- LC retention time [13]: 11.9 min

SMILES: O=c1c(O)c(-c2cc(O)c(OS(=O)(=O)O)c(O)c2)oc2cc(O)cc(O)c12 [Myricetin 4-O-sulfate]
- LC retention time [13]: 15.2 min

SMILES: CC=C1C(OC2OC(CO)C(O)C(O)C2O)OC=C(C(=O)OC)C1CC(=O)OCCc1ccc(O)c(O)c1 (configuration not stated) [Oleuropein]
- LC retention time [3]: 8.38 min
- LC retention time [4]: 83.2 min
- LC retention time [14]: 5.24 min

SMILES: Oc1cc(O)cc(O)c1 [Phloroglucinol]
- LC retention time [13]: 2.9 min

SMILES: O=c1c(OC2OC(CO)C(O)C(O)C2O)c(-c2ccc(O)c(O)c2)oc2cc(O)cc(O)c12 (configuration not stated) [Quercetin-3-O-glucoside]
- LC retention time [13]: 9.23 min

SMILES: COc1cc(C2Oc3c(O)cc(C4Oc5cc(O)cc(O)c5C(=O)C4O)cc3C2CO)ccc1O (configuration not stated) [Silychristin]
- LC retention time [13]: 10.3 min

SMILES: COc1cc(C2C3C=C(C4Oc5cc(O)cc(O)c5C(=O)C4O)C4C2COC4(O)C3=O)ccc1O (configuration not stated) [Silydianin]
- LC retention time [13]: 21.5 min

SMILES: O=c1oc2cc(O)ccc2c2ccc(O)cc12 [Urolithin A]
- LC retention time [1]: 14.9 min
- LC retention time [2]: 35.8 min
- LC retention time [5]: 18.4 min
- LC retention time [6]: 13.1 min
- LC retention time [7]: 5.95 min
- LC retention time [9]: 5.33 min
- LC retention time [14]: 5.59 min
- LC retention time [10]: 10.6 min
- LC retention time [11]: 3.08 min
- LC retention time [12]: 9.38 min

SMILES: CC1CCC2(C(=O)O)CCC3(C)C(=CCC4C5(C)CCC(O)C(C)(C)C5CCC43C)C2C1C (configuration not stated) [Ursolic acid]
- LC retention time [1]: 22.7 min
- LC retention time [5]: 34.2 min
- LC retention time [7]: 10.7 min
- LC retention time [9]: 11.2 min
- LC retention time [10]: 18.1 min
- LC retention time [11]: 1.8 min
- LC retention time [12]: 10.9 min

Reference: the RepoRT retention time repository (doi:10.1016/j.foodchem.2021.129757)
